pIC50: −log10 of the molar value. ≈ marks a conversion by molar mass, not a printed value. Calls of active or inactive are those of the source. The rule behind the calls is not given here.

Data set [1] concerns Mycobacterium tuberculosis. Put plainly: Antimycobacterial activity against Mycobacterium tuberculosis H37Rv ATCC 27294 assessed as growth inhibition at 10 uM after 5 days relative to control. The format is functional. The note with it: H37Rv ATCC 27294, 120 h, read-out: GI.
Data set [2] can be described thus: Aqueous solubility of compound at pH 7.4 at 25 degC after 24 hrs. It is filed as physicochemical. Particulars: buffer.
For data set [3], the system named is Mycolicibacterium smegmatis. Put plainly: Antimycobacterial activity against Mycobacterium smegmatis MC2 155 ATCC 700084 assessed as growth inhibition at 10 uM after 5 days relative to control. It is filed as functional. The note with it: MC2 155 ATCC 700084, 120 h, read-out: GI.
The nature of data set [4]: Selectivity index, ratio of IC50 for African green monkey Vero E6 cells to MIC50 for Mycobacterium tuberculosis H37Rv ATCC 27294. It is filed as toxicity, Vero C1008. Particulars: read-out: Selectivity Index.
Data set [5] deals with Lipid bilayer. In words: Binding affinity to DMPG vesicles assessed as increase in width at 1/2 height of endotherm of compound containing vesicles by differential scanning calorimetric analysis. On the technique in general: In DSC, transitions show as peaks or steps in heat flow.
Data set [6] has as its system Lipid bilayer. In words: Binding affinity to DMPG vesicles assessed as melting transition temperature by differential scanning calorimetric analysis (reference value: 21.09 to 23.32 degC).
The test system of data set [7] is Lipid bilayer. In words: Binding affinity to DMPG vesicles assessed as change in enthalpy by differential scanning calorimetric analysis.
A short description of data set [8]: Therapeutic index, ratio of HC50 for human RBC to MIC50 for Mycobacterium tuberculosis H37Rv ATCC 27294.
The subject of the next data set is Vero C1008. In words: Cytotoxicity against African green monkey Vero E6 cells assessed as reduction in cell viability after 48 hrs by 96 aqueous one-based assay. Particulars: Chlorocebus sabaeus, Vero C1008, 48 h.
Data set [9] deals with Mycobacterium tuberculosis. Put plainly: Antimycobacterial activity against Mycobacterium tuberculosis H37Rv ATCC 27294 after 5 days by broth dilution method. It is filed as functional. The note with it: H37Rv ATCC 27294, 120 h. For orientation: Broth dilution looks for growth in wells or tubes with falling amounts of substance.
A short description of data set [10]: Half life in rat liver microsomes preincubated for 5 mins followed by NADPH addition measured up to 45 mins by LC-MS analysis. The format is ADME, microsome.
A short description of data set [11]: Selectivity index, ratio of IC50 for human HepG2 cells to MIC50 for Mycobacterium tuberculosis H37Rv ATCC 27294. It is filed as toxicity. The note with it: read-out: Selectivity Index.
A further data set concerns HepG2. Put plainly: Cytotoxicity against human HepG2 cells assessed as reduction in cell viability after 48 hrs by MTT assay. It is filed as cell-based. Particulars: HepG2, 48 h.
In another data set the test system is Escherichia coli. In words: Antibacterial activity against Escherichia coli ATCC 25922 after 18 hrs. It is filed as functional.
For data set [12], the system named is Mycobacteroides abscessus. In words: Antimycobacterial activity against Mycobacterium abscessus Bamboo after 3 days. The format is functional. The note with it: 72 h.
The subject of another data set is Staphylococcus aureus. In words: Antibacterial activity against Staphylococcus aureus ATCC 29213 after 18 hrs. The format is functional. The note with it: ATCC 29213, 18 h.
Another data set deals with Mycobacterium avium. In words: Antimycobacterial activity against Mycobacterium avium 11 after 4 days. It is filed as functional. Particulars: Mycobacterium avium, 11, 96 h.

The solubility is the concentration that dissolves in the medium under given conditions. With `CC(C)=CCC/C(C)=C/Cn1cc(CN2CCCCC2)c2cc(F)ccc21`, the inhibition of growth at 10 µM in data set [1] and in data set [3] was 99% throughout. The compound further gave a solubility at 24 h in [2] of 25 µM (≈ 9.21 µg/mL). Further, the selectivity ratio in [4] was 6.

With `CCCCCCCCn1cc(C(=O)N2CCCCCC2)c2cc(F)ccc21`, the inhibition of growth at 10 µM in data set [1] and in data set [3] was 99% in each case. For the same compound, the result with Lipid bilayer [5] was inactive. Besides, in the data set on Lipid bilayer [6], the Tm is 18.9 °C. Further, the deltaH with Lipid bilayer [7] is -2.52 kcal/mol.

Usually pIC50 stands for −log10 of the IC50, conventionally taken in molar units. As a reminder, the MIC50 is an inhibitory concentration at the 50% level, which refers to growth in some studies and to a panel of isolates in others. In general, MIC90 refers to the lowest concentration that inhibits either 90% of growth or 90% of the strains tested, depending on the study. The half-life is the time in which the quantity being followed falls by half. Regarding `CCCCCCCCn1cc(CN2CCC3(CC2)OCCO3)c2ccc(OC)cc21`, the inhibition of growth at 10 µM in [1] and in data set [3] was 99% in each case. Besides, the Tm in the data set with Lipid bilayer [6] is 18.1 °C. In data set [2], the solubility at 24 h is 31.3 µM (≈ 13 µg/mL). For the same compound, the TI in [8] was 15 to 30. Besides, the values for the negative logarithm of the IC50 (pIC50) in the data set with Vero C1008 and in the data set with HepG2 were 4.34 and 4.80, respectively. Moreover, the MIC50 in [9] was 1.2 µM (≈ 0.498 µg/mL). Moreover, the MIC90 in [9] stood at 2.3 µM (≈ 0.954 µg/mL). Also, in data set [10], the half-life is 27.9 min. Further, the selectivity ratio in [11] was found to be 13.1; in data set [4], 38.4. In addition, the deltaH in the data set on Lipid bilayer [7] is -1.59 kcal/mol.

For `CCCCCCCCn1cc(CN2CCC(C)CC2)c2c(F)cccc21`, the inhibition of growth at 10 µM in [1] and in [3] was 99% in each case. In the data set on Lipid bilayer [6], the Tm was 19.8 °C. The solubility at 24 h in data set [2] came to 23.2 µM (≈ 8.32 µg/mL). In addition, the negative logarithm of the IC50 (pIC50) was 4.45 in the data set on Vero C1008 and 4.81 in the data set with HepG2. This compound also showed an MIC50 in [9] of 3 µM (≈ 1.08 µg/mL). In data set [9], the MIC90 is 6 µM (≈ 2.15 µg/mL). The same compound returned a half-life in [10] of 22.8 min. In addition, the selectivity ratio is 5.2 in data set [11] and 11.7 in [4]. For the same compound, in the data set on Lipid bilayer [7], the deltaH is -2.69 kcal/mol.

In the case of `CCCCCCCCn1cc(CNC23CC4CC(CC(C4)C2)C3)c2c(F)cccc21`, the inhibition of growth at 10 µM in [1] and in [3] was 99% throughout. The amount in solution in data set [2] (solubility at 24 h) came to 10.2 µM (≈ 4.19 µg/mL). Further, the values for the pIC50 in the data set on Vero C1008 and in the data set with HepG2 were 4.80 and 4.89, respectively. For the same compound, the MIC50 in [9] is 2 µM (≈ 0.821 µg/mL). In [9], this compound had an MIC90 of 3 µM (≈ 1.23 µg/mL). Moreover, in data set [10], the half-life came to 15.9 min. The selectivity ratio came to 6.5 in [11] and 8 in [4].

As for `CCCCCCCCn1cc(CN2CCC(C)CC2)c2ccc(OC)cc21`, the inhibition of growth at 10 µM in data set [1] and in [3] was 99% each time. Further, the Tm in the data set with Lipid bilayer [6] worked out at 18.9 °C. For the same compound, the concentration in solution in data set [2] (solubility at 24 h) was 44.9 µM (≈ 16.6 µg/mL). For the same compound, in data set [8], the TI lay within 15 to 30. In addition, the pIC50 was 4.49 in the data set with Vero C1008 and 4.80 with HepG2. For the same compound, in data set [9], the MIC50 came to 1.5 µM (≈ 0.556 µg/mL). The MIC90 in data set [9] amounted to 3.3 µM (≈ 1.22 µg/mL). Further, the half-life in data set [10] was 5.5 min. The figures for the selectivity ratio in data set [11] and in [4] were 10.5 and 21.5, respectively. Moreover, the deltaH in the data set on Lipid bilayer [7] was -1.63 kcal/mol.

In the case of `CCCCCCCCn1cc(CN2CCC3(CC2)OCCO3)c2c(F)cccc21`, the inhibition of growth at 10 µM in data set [1] and in data set [3] was 99% each time. In addition, the Tm with Lipid bilayer [6] was determined as 19.4 °C. In addition, the pIC50 was 4.41 with Vero C1008 and 4.66 in the data set with HepG2. In [9], this compound gave an MIC50 of 5.3 µM (≈ 2.13 µg/mL). Besides, the MIC90 in data set [9] was found to be 10.6 µM (≈ 4.27 µg/mL). Besides, the selectivity ratio in [11] was 4.1; in data set [4], 7.3. For the same compound, the deltaH in the data set on Lipid bilayer [7] is -1.7 kcal/mol.

Turning to `CCCCCCCCn1cc(CN2CCCCCC2)c2c(F)cccc21`, the inhibition of growth at 10 µM in [1] and in data set [3] was 99% each time. Further, in the data set with Escherichia coli, the outcome was inactive. The MIC50 in data set [12] was found to be 19 µM (≈ 6.81 µg/mL); against Staphylococcus aureus, 8 µM (≈ 2.87 µg/mL); in [9], 2.3 µM (≈ 0.825 µg/mL); against Mycobacterium avium, 2 µM (≈ 0.717 µg/mL). Moreover, the result in the data set on Lipid bilayer [5] was Active. In the data set with Lipid bilayer [6], the Tm was 18 °C. Also, in data set [2], the solubility at 24 h came out at 35.9 µM (≈ 12.9 µg/mL). The TI in data set [8] lay in the range of 15 to 30. Besides, the pIC50 is 4.53 in the data set with Vero C1008 and 4.72 in the data set with HepG2. The compound further returned an MIC90 in data set [9] of 5 µM (≈ 1.79 µg/mL). The compound also yielded a half-life in data set [10] of 560 min. The selectivity ratio was 8.3 in data set [11] and 12.7 in data set [4]. For the same compound, in the data set on Lipid bilayer [7], the deltaH is -1.39 kcal/mol.

Regarding `Fc1cccc2[nH]cc(CN3CCCCCC3)c12`, the inhibition of growth at 10 µM in data set [1] and in [3] was 99% in each case. Besides, the Tm in the data set on Lipid bilayer [6] was 20.4 °C. The deltaH with Lipid bilayer [7] is -4.83 kcal/mol.

On to `CCCCCCCCn1ccc2c(F)cccc21`, for which the inhibition of growth at 10 µM in data set [1] and in [3] was 99% throughout. For the same compound, the result in the data set on Lipid bilayer [5] was inactive. In addition, in the data set on Lipid bilayer [6], the Tm was determined as 19.9 °C. Moreover, in the data set on Lipid bilayer [7], the deltaH is -3.34 kcal/mol.

For the compound `CCCCCCCCCCn1cc(CN2CCCCCC2)c2c(F)cccc21`, the inhibition of growth at 10 µM in data set [1] and in data set [3] was 99% in each case. The result in the data set with Lipid bilayer [5] was inactive. In addition, the Tm in the data set on Lipid bilayer [6] was found to be 18.6 °C. Further, the deltaH in the data set with Lipid bilayer [7] is -0.963 kcal/mol.

With `CCn1cc(CN2CCCCCC2)c2c(F)cccc21`, the inhibition of growth at 10 µM in data set [1] and in [3] was 99% each time. The Tm in the data set on Lipid bilayer [6] was 19.8 °C. Further, the deltaH in the data set on Lipid bilayer [7] was -3.44 kcal/mol.

As for `CCCCCCCCn1cc(CN2CCC3(CC2)OCCO3)c2ccc(F)cc21`, the inhibition of growth at 10 µM in [1] and in [3] was 99% in each case. Further, in the data set with Lipid bilayer [6], the Tm was 18.5 °C. Further, the negative logarithm of the IC50 (pIC50) in the data set with Vero C1008 was 4.32; in the data set with HepG2, 4.59. This compound also came in with an MIC50 in [9] of 3 µM (≈ 1.21 µg/mL). Besides, in data set [9], the MIC90 is 6 µM (≈ 2.42 µg/mL). For the same compound, the figures for the selectivity ratio in data set [11] and in [4] were 8.5 and 15.8, respectively. For the same compound, the deltaH in the data set on Lipid bilayer [7] was -2.15 kcal/mol.

With `CCCCCCCCCCCCn1cc(CN2CCCCCC2)c2c(F)cccc21`, the inhibition of growth at 10 µM in data set [1] and in [3] was 99% each time. The outcome in the data set on Lipid bilayer [5] was inactive. The Tm with Lipid bilayer [6] worked out at 18.8 °C. Besides, the deltaH in the data set with Lipid bilayer [7] was -0.44 kcal/mol.

On to `CCCCn1cc(CN2CCCCCC2)c2c(F)cccc21`, for which the inhibition of growth at 10 µM in data set [1] and in [3] was 99% throughout. Also, the Tm in the data set on Lipid bilayer [6] is 19 °C. In the data set with Lipid bilayer [7], the deltaH was -3.3 kcal/mol.

(Values after ChEMBL document CHEMBL4007488, “Amphiphilic Indole Derivatives as Antimycobacterial Agents: Structure-Activity Relationships and Membrane Targeting Properties” (J Med Chem, 2017).)
